The source of these data is US20260297542A1, “HERBICIDE RESISTANT PLANTS” (SYNGENTA CROP PROTECTION AG, priority 2023, published 2026).

What all share (experiment): E. coli hemG growth inhibition by herbicide, AtPPO1 variant
What all share (assay type): cell-based
Details in all cases: read-out: percentage growth inhibition

In one assay the target is T1, AtPPO1 F214Y (Arabidopsis thaliana, UniProt P55826, F214Y).
T1 construct: expressed in transfected cells; host or cells: E. coli BL21(DE3) hemG (hemG replaced by CmR), pET24a plasmid
T1 sequence (P55826 35-537 F214Y): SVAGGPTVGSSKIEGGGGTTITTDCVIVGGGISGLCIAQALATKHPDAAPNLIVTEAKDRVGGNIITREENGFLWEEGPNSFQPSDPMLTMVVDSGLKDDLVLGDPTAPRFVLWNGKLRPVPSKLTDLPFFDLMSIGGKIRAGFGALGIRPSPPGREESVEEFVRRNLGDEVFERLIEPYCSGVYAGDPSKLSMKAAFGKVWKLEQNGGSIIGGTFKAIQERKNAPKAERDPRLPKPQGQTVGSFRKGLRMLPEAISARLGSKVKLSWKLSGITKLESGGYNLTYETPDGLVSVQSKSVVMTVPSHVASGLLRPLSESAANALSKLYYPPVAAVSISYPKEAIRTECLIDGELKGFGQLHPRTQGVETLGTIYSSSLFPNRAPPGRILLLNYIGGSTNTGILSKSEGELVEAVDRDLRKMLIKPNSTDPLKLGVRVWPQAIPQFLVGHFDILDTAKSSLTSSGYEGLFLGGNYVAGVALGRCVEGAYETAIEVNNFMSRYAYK
The procedure, abridged:
(§1)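 Read-out is OD600 at 24 h post inoculation, converted to percent growth inhibition relative to DMSO. The hemG-deleted BL21(DE3) host relied on the plasmid-borne AtPPO1 variant, induced with 0.1 mM IPTG, with 6.25 ppm herbicide 0 or E or 0.78 ppm herbicide B present at 37° C.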

For the next assay, the target named is T2, AtPPO1 P154Y (Arabidopsis thaliana, UniProt P55826, P154Y).
T2 construct: expressed in transfected cells; host or cells: E. coli BL21(DE3) hemG (hemG replaced by CmR), pET24a plasmid
T2 sequence (P55826 35-537 P154Y): T1 sequence (P55826 35-537 F214Y) with P120Y, Y180F
The procedure, abridged: as §1

The target of a further assay is T3, AtPPO1 Y361Q (Arabidopsis thaliana, UniProt P55826, Y361Q).
T3 construct: expressed in transfected cells; host or cells: E. coli BL21(DE3) hemG (pET24a, T7 promoter)
T3 sequence (P55826 35-537 Y361Q): T1 sequence (P55826 35-537 F214Y) with Y180F, Y327Q
The procedure, abridged:
as §1

A further assay addresses T4, AtPPO1 Y361R (Arabidopsis thaliana, UniProt P55826, Y361R).
T4 sequence (P55826 35-537 P363R/Y361R): T1 sequence (P55826 35-537 F214Y) with Y180F
The procedure, abridged:
as §1

Substitutions are numbered along the chain they refer to.

As for `C#CCN1C(=O)C(F)(F)Oc2cc(F)c(-n3c(=O)n(C)c(=S)n(C)c3=O)cc21` [Herbicide B, trifludimoxazin], the inhibition at 0.78 ppm turned out to be 26% on AtPPO1 F214Y, 34% on AtPPO1 P154Y, 19% on AtPPO1 Y361Q and 36% at AtPPO1 Y361R.

Regarding `CCOC(=O)[C@]1(C)CC(c2cc(-n3c(=O)n(C)c(=S)n(C)c3=O)c(F)cc2Cl)=NO1` [Herbicide D, ethyl (5S)-3-[2-chloro-5-(3,5-dimethyl-2,6-dioxo-4-thioxo-1,3,5-triazinan-1-yl)-4-fluoro-phenyl]-5-methyl-4H-isoxazole-5-carboxylate], the inhibition at 6.25 ppm was found to be 34% on AtPPO1 F214Y, 38% at AtPPO1 P154Y, 32% on AtPPO1 Y361Q and 43% at AtPPO1 Y361R.

As for `CC(C)N(C)S(=O)(=O)NC(=O)c1cc(-n2c(=O)cc(C(F)(F)F)n(C)c2=O)c(F)cc1Cl` [Herbicide E, saflufenacil], the inhibition at 6.25 ppm at AtPPO1 F214Y was found to be 63%; on AtPPO1 P154Y it was 68%; at AtPPO1 Y361Q, 0%; at AtPPO1 Y361R, 56%.
